Assay results reported in US7781436B2 (Hoffmann-La Roche Inc., priority 2005, dated 2010).

These compounds were tested against T1, human V1a receptor (Homo sapiens, UniProt P37288) (assay: human V1a receptor binding (3H-Vasopressin SPA, membranes of transfected HEK293 cells)). Settings: not given.
T1 construct: expressed in transfected cells; host or cells: HEK293 cells, transiently transfected; membranes prepared
T1 sequence (P37288 whole entry): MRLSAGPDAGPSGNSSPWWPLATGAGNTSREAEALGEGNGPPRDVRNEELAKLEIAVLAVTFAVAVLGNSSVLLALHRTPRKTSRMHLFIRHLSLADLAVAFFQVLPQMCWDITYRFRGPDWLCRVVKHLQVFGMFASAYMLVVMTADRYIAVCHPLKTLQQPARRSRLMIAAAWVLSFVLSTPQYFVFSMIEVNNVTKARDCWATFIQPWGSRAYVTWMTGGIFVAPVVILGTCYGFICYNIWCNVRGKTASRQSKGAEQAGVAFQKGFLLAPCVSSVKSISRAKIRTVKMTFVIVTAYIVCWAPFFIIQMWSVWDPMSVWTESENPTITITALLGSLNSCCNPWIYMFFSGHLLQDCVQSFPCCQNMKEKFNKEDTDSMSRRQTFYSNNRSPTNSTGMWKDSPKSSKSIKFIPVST
Description: The human V1a receptor was cloned by RT-PCR from total human liver RNA. The coding sequence was subcloned in an expression vector after sequencing to confirm the identity of the amplified sequence. […] Cell membranes were prepared from HEK293 cells transiently transfected with the expression vector and grown in 20 liter fermenters with the following protocol.
50 g of cells are resuspended in 30 ml freshly prepared ice cold Lysis buffer (50 mM HEPES, 1 mM EDTA, 10 mM MgCl2 adjusted to pH=7.4+ complete cocktail of protease inhibitor (Roche Diagnostics)). Homogenized with Polytron for 1 min and sonicated on ice for 2×2 minutes at 80% intensity (Vibracell sonicator). The preparation is centrifuged 20 min at 500 g at 4° C., the pellet is discarded and the supernatant centrifuged 1 hour at 43,000 g at 4° C. (19'000 rpm). The pellet is resuspended in 12.5 ml Lysis buffer+12.5 ml Sucrose 20% and homogenized using a Polytron for 1-2 min. The protein concentration is determined by the Bradford method, and aliquots are stored at −80° C. until use. For binding studies 60 mg Yttrium silicate SPA beads (Amersham) are mixed with an aliquot of membrane in binding buffer (50 mM Tris, 120 mM NaCl, 5 mM KCl, 2 mM CaCl2, 10 mM MgCl2) for 15 minutes with mixing. 50 ul of bead/membrane mixture is then added to each well of a 96 well plate, followed by 50 ul of 4 nM 3H-Vasopressin (American Radiolabeled Chemicals). For total binding measurement 100 ul of binding buffer are added to the respective wells, for non-specific binding 100 ul of […] cold vasopressin and for compound testing 100 ul of a serial dilution of each compound in 2% DMSO. The plate is incubated 1 h at room temperature, centrifuged 1 min at 1000 g and counted on a Packard Top-Count. Non-specific binding counts are subtracted from each well, and data is normalized to the maximum specific binding set at 100%. To calculate an IC 50 the curve is fitted using a non-linear regression model (XLfit) and the Ki is calculated using the Cheng-Prussoff equation.
`CC(=O)NCCn1cc(C(=O)N2CCN(c3ccccc3F)CC2)c2ccc(Cl)cc21` [Example 217, N-(2-{6-Chloro-3-[4-(2-fluoro-phenyl)-piperazine-1-carbonyl]-indol-1-yl}-ethyl)-acetamide] was tested, and the Ki was 21 nM. In the case of `CN1CCC[C@H]1Cn1cc(C(=O)N2CCN(c3ccccc3F)CC2)c2ccc(Cl)cc21` [Example 203, [6-Chloro-1-((S)-1-methyl-pyrrolidin-2-ylmethyl)-1H-indol-3-yl]-[4-(2-fluoro-phenyl)-piperazin-1-yl]-methanone], the Ki is reported as 2 nM. `CN1CCC[C@@H]1Cn1cc(C(=O)N2CCN(c3ccccc3F)CC2)c2ccc(Cl)cc21` [Example 215, [6-Chloro-1-((R)-1-methyl-pyrrolidin-2-ylmethyl)-1H-indol-3-yl]-[4-(2-fluoro-phenyl)-piperazin-1-yl]-methanone] was tested, and the Ki was 6 nM. Compound `COc1ccccc1N1CCN(C(=O)c2cn(CC(=O)N3CCN(C)CC3)c3cc(Cl)ccc23)CC1` [Example 153, 2-{6-Chloro-3-[4-(2-methoxy-phenyl)-piperazine-1-carbonyl]-indol-1-yl}-1-(4-methyl-piperazin-1-yl)-ethanone] has a Ki of 23 nM. Compound `CN(CCn1cc(C(=O)N2CCN(c3ccccc3F)CC2)c2ccc(Cl)cc21)S(C)(=O)=O` [Example 220] has a Ki of 17 nM. `COc1ccccc1C1=CCN(C(=O)c2c(C)n(Cc3ccccc3)c3ccccc23)CC1` [Example 3] gave a Ki of 14 nM. `O=C(c1cn(C[C@H]2CCCN2)c2cc(Cl)ccc12)N1CCN(c2ccccc2F)CC1` [Example 214, (6-Chloro-1-(R)-1-pyrrolidin-2-ylmethyl-1H-indol-3-yl)-[4-(2-fluoro-phenyl)-piperazin-1-yl]-methanone] showed a Ki of 16 nM. With `CN(C)C(=O)Cn1cc(C(=O)N2CCC(C#N)(c3ccccc3F)CC2)c2ccc(Cl)cc21` [Example 61, 2-{6-Chloro-3-[4-cyano-4-(2-fluoro-phenyl)-piperidine-1-carbonyl]-indol-1-yl}-N,N-dimethyl-acetamide] the Ki was 13 nM. In the case of `CNC(=O)Cn1cc(C(=O)N2CCN(c3ccccc3F)CC2)c2ccc(Cl)cc21` [Example 176, 2-{6-Chloro-3-[4-(2-fluoro-phenyl)-piperazine-1-carbonyl]-indol-1-yl}-N-methyl-acetamide], the Ki is reported as 8 nM. In the case of `COc1cccc(OC)c1C1CCN(C(=O)c2cn(CC(N)=O)c3cc(Cl)ccc23)CC1` [Example 81, 2-{6-Chloro-3-[4-(2,6-dimethoxy-phenyl)-piperidine-1-carbonyl]-indol-1-yl}-acetamide], the Ki is reported as 13 nM. Compound `CN(C)C(=O)Cn1cc(C(=O)N2CCC(c3ccccc3OC(F)(F)F)CC2)c2ccc(Cl)cc21` [Example 95, 2-{6-Chloro-3-[4-(2-trifluoromethoxy-phenyl)-piperidine-1-carbonyl]-indol-1-yl}-N,N-dimethyl-acetamide] has a Ki of 13 nM. In the case of `O=C(c1cn(C[C@@H]2CCCN2)c2cc(Cl)ccc12)N1CCN(c2ccccc2F)CC1` [Example 200, (6-Chloro-1-(S)-1-pyrrolidin-2-ylmethyl-1H-indol-3-yl)-[4-(2-fluoro-phenyl)-piperazin-1-yl]-methanone], the Ki is reported as 21 nM. `Cc1c(C(=O)N2CCC(c3ccccc3)CC2)c2ccccc2n1Cc1ccccc1` [Example 24] was tested, and the Ki was 10 nM. For `CC(=O)N(C)CCn1cc(C(=O)N2CCN(c3ccccc3F)CC2)c2ccc(Cl)cc21` [Example 219, N-(2-{6-Chloro-3-[4-(2-fluoro-phenyl)-piperazine-1-carbonyl]-indol-1-yl}-ethyl)-N-methyl-acetamide], the Ki was 15 nM.

Same assay, conditions: displacement of 4 nM 3H-Vasopressin, HEK293 cell membranes, Ki by Cheng-Prussoff from IC50; read-out: Ki
For `COc1cccc(OC)c1C1CCN(C(=O)c2cn(CC(=O)N(C)C)c3cc(Cl)ccc23)CC1` [Example 43, 2-{6-Chloro-3-[4-(2,6-dimethoxy-phenyl)-piperidine-1-carbonyl]-indol-1-yl}-N,N-dimethyl-acetamide], the Ki was 2 nM. With `COc1ccccc1C1CCN(C(=O)c2cn(CC(=O)N3CCN(C)CC3)c3cc(Cl)ccc23)CC1` [Example 58, 2-{6-Chloro-3-[4-(2-methoxy-phenyl)-piperidine-1-carbonyl]-indol-1-yl}-1-(4-methyl-piperazin-1-yl)-ethanone] the Ki was 9 nM. `CN1CCN(C(=O)Cn2cc(C(=O)N3CCN(c4ccccc4F)CC3)c3ccc(Cl)cc32)CC1` [Example 172, 2-{6-Chloro-3-[4-(2-fluoro-phenyl)-piperazine-1-carbonyl]-indol-1-yl}-1-(4-methyl-piperazin-1-yl)-ethanone] was tested, and the Ki was 10 nM. For `COc1cccc(OC)c1C1CCN(C(=O)c2cn(CCN(C)C)c3cc(Cl)ccc23)CC1` [Example 52, [6-Chloro-1-(2-dimethylamino-ethyl)-1H-indol-3-yl]-[4-(2,6-dimethoxy-phenyl)-piperidin-1-yl]-methanone], the Ki was 4 nM. `CNC(=O)Cn1cc(C(=O)N2CCC(c3ccccc3OC)CC2)c2ccc(Cl)cc21` [Example 106, 2-{6-Chloro-3-[4-(2-methoxy-phenyl)-piperidine-1-carbonyl]-indol-1-yl}-N-methyl-acetamide] showed a Ki of 5 nM. `COc1ccccc1N1CCN(C(=O)c2cn(CC(=O)N(C)C)c3cc(Cl)ccc23)CC1` [Example 151, 2-{6-Chloro-3-[4-(2-methoxy-phenyl)-piperazine-1-carbonyl]-indol-1-yl}-N,N-dimethyl-acetamide] showed a Ki of 14 nM. For `COc1cccc(OC)c1C1CCN(C(=O)c2cn(CC(=O)OC(C)(C)C)c3cc(Cl)ccc23)CC1` [Example 49, {6-Chloro-3-[4-(2,6-dimethoxy-phenyl)-piperidine-1-carbonyl]-indol-1-yl}-acetic acid tert-butyl ester], the Ki was 3 nM. `CN(C)CCn1cc(C(=O)N2CCC(c3ccccc3F)CC2)c2ccc(Cl)cc21` [Example 115, [6-Chloro-1-(2-dimethylamino-ethyl)-1H-indol-3-yl]-[4-(2-fluoro-phenyl)-piperidin-1-yl]-methanone] gave a Ki of 11 nM. `CN(C)CCn1cc(C(=O)N2CCN(c3ccccc3F)CC2)c2ccc(Cl)cc21` [Example 171, [6-Chloro-1-(2-dimethylamino-ethyl)-1H-indol-3-yl]-[4-(2-fluoro-phenyl)-piperazin-1-yl]-methanone] gave a Ki of 7 nM. `CNC(=O)Cn1cc(C(=O)N2CCN(c3ccccc3OC)CC2)c2ccc(Cl)cc21` [Example 162, 2-{6-Chloro-3-[4-(2-methoxy-phenyl)-piperazine-1-carbonyl]-indol-1-yl}-N-methyl-acetamide] showed a Ki of 27 nM. `COc1cccc(OC)c1C1CCN(C(=O)c2cn(CC(=O)N3CCNCC3)c3cc(Cl)ccc23)CC1` [Example 69, 2-{6-Chloro-3-[4-(2,6-dimethoxy-phenyl)-piperidine-1-carbonyl]-indol-1-yl}-1-piperazin-1-yl-ethanone] was tested, and the Ki was 6 nM. Work on `COc1cccc(OC)c1C1CCN(C(=O)c2cn(Cc3ccnc(C)c3)c3cc(Cl)ccc23)CC1` [Example 63, [6-Chloro-1-(2-methyl-pyridin-4-ylmethyl)-1H-indol-3-yl]-[4-(2,6-dimethoxy-phenyl)-piperidin-1-yl]-methanone] yielded a Ki of 2 nM. In the case of `CNC(=O)Cn1cc(C(=O)N2CCN(c3ccc(F)cc3F)CC2)c2ccc(Cl)cc21` [Example 190, 2-{6-Chloro-3-[4-(2,4-difluoro-phenyl)-piperazine-1-carbonyl]-indol-1-yl}-N-methyl-acetamide], the Ki is reported as 19 nM. For `CN(C)C(=O)Cn1cc(C(=O)N2CCN(c3ncccc3C(F)(F)F)CC2)c2ccc(Cl)cc21` [Example 211, 2-{6-Chloro-3-[4-(3-trifluoromethyl-pyridin-2-yl)-piperazine-1-carbonyl]-indol-1-yl}-N,N-dimethyl-acetamide], the Ki was 13 nM. Compound `CN1CCN(C(=O)Cn2cc(C(=O)N3CCC(c4ccccc4F)CC3)c3ccc(Cl)cc32)CC1` [Example 117, 2-{6-Chloro-3-[4-(2-fluoro-phenyl)-piperidine-1-carbonyl]-indol-1-yl}-1-(4-methyl-piperazin-1-yl)-ethanone] has a Ki of 6 nM. `CN(C)C(=O)Cn1cc(C(=O)N2CCC(c3ccccc3F)CC2)c2ccc(Cl)cc21` [Example 114, 2-{6-Chloro-3-[4-(2-fluoro-phenyl)-piperidine-1-carbonyl]-indol-1-yl}-N,N-dimethyl-acetamide] showed a Ki of 3 nM. With `CN(C)C(=O)Cn1cc(C(=O)N2CCC(c3cccc4c3OCC4)CC2)c2ccc(Cl)cc21` [Example 72, 2-{6-Chloro-3-[4-(2,3-dihydro-benzofuran-7-yl)-piperidine-1-carbonyl]-indol-1-yl}-N,N-dimethyl-acetamide] the Ki was 3 nM. In the case of `O=C(Cn1cc(C(=O)N2CCN(c3ccccc3F)CC2)c2ccc(Cl)cc21)N1CCNCC1` [Example 177, 2-{6-Chloro-3-[4-(2-fluoro-phenyl)-piperazine-1-carbonyl]-indol-1-yl}-1-piperazin-1-yl-ethanone], the Ki is reported as 8 nM.
